The subject of one series is forced-swimming mice. Kind of series: In vivo pharmacodynamic test in the forced swimming model in mice. The settings on record: ICR mice.
Series [1] is described as follows: Pharmacokinetic assay in Balb/c mice (plasma and brain tissue). The following applies: mouse, po, 5 mg/kg p.o., male Balb/c mice; for AUC(0-t): read-out: Area under curve AUC0-t; for AUC(0-inf): read-out: Area under curve AUC0-∞; for half-life: read-out: Half-life t1/2 (converted); for MRT: read-out: Mean residence time MRT; for Tmax: read-out: Peak time tmax; for Cmax: read-out: Plasma concentration Cmax. The series is classed as in vivo. Summed up: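 Compound levels in plasma and brain were measured by LC/MS/MS with an internal standard after protein precipitation with acetonitrile. Samples came from overnight-fasted male Balb/c mice given 5 mg/kg p.o., with cardiac blood drawn at 0–24 h. Pharmacokinetic parameters were then calculated.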

The structures appear in SMILES notation. Where two headings read alike, the source gives them in different places.

The record followed here is patent publication US12139508B2, “Steroid derivative regulators, method for preparing the same, and uses thereof” (JIANGSU HANSOH PHARMACEUTICAL GROUP CO., LTD., priority 2018, dated 2024).

On to `C[C@@]1(O)CC[C@H]2[C@H](CC[C@@H]3[C@@H]2CC[C@@]2(C)[C@H]3[C@H](C3CC3)C[C@@H]2C(=O)Cn2ncnn2)C1` [Example 146, 1-((3R,5R,8R,9R,10S,13S,14S,15S,17S)-15-Cyclopropyl-3-hydroxy-3,13-dimethylhexadecahydro-1H-cyclopenta[a]phenanthren-17-yl)-2-(2H-tetrazol-2-yl)ethan-1-one], for which the “Mean (immobility, %)” value with forced-swimming mice (dose 5 mpk p.o., 100*floating time/240 s) amounted to 33.54%. Further, the “Immobility time during the latter four minutes compared with that of the model group” value in the series on forced-swimming mice (forced swimming) is listed as “significantly different”. In series [1] (brain tissue), the AUC(0-t) is 8680 ng·h/mL, the AUC(0-inf) came to 12500 ng·h/mL, the half-life was 4.66 h and the mean residence time (MRT) stood at 6.73 h. For the same molecule, in series [1] (brain tissue), the Tmax came out at 1 h and the Cmax came to 1970 ng/mL. Further, in series [1] (plasma), the AUC(0-t) was determined as 7790 ng·h/mL, the AUC(0-inf) is 8000 ng·h/mL, the half-life is 1.45 h and the MRT turned out to be 2.97 h. In series [1] (plasma), the time of peak concentration (Tmax) was determined as 1 h and the Cmax came to 2090 ng/mL.
